Test results: publication PMC6400584, “Activation mechanism of ATP-sensitive K^+ channels explored with real-time nucleotide binding” (eLife, 2019)

Molecular target: T1, SUR1-Y1353^stop/Kir6.2 (Homo sapiens, UniProt Q09428+Q14654)
T1 construct: expressed in transfected cells; host or cells: HEK-293T
T1 sequence (Q09428 1-1352): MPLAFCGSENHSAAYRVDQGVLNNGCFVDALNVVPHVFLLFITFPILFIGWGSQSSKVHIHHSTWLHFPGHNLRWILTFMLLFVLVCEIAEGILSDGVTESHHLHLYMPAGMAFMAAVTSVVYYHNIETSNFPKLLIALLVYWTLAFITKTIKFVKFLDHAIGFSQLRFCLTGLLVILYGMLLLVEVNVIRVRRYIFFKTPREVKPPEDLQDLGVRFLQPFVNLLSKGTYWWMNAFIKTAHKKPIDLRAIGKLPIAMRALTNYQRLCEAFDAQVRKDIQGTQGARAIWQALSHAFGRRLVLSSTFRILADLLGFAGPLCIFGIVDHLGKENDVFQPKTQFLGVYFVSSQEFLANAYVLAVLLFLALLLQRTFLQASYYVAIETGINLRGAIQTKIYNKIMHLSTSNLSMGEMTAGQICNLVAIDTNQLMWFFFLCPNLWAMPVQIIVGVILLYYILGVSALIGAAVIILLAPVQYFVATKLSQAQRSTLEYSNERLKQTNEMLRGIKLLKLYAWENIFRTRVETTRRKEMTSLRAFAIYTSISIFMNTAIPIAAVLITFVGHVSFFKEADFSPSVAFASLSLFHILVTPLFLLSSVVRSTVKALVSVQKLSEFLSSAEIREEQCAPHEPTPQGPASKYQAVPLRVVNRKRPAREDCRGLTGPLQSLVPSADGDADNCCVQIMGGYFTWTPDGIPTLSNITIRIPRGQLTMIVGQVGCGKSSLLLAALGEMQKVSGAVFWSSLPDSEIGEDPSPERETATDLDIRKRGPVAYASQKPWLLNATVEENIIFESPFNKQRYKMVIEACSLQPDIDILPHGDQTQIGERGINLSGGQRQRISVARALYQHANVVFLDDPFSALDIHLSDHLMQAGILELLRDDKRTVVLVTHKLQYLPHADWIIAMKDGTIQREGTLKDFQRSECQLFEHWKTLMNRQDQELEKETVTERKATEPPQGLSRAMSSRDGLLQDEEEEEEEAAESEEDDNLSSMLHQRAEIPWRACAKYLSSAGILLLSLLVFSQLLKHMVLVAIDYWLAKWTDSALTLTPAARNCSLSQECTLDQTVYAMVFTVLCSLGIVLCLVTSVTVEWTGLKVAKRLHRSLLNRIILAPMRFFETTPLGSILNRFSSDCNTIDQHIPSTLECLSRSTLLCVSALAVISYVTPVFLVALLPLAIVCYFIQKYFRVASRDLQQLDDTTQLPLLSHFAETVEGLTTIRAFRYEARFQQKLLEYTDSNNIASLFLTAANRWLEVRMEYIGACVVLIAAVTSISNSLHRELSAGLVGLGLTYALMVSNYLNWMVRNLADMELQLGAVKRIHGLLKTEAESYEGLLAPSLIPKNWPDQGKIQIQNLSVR
T1 sequence (Q14654 1-390): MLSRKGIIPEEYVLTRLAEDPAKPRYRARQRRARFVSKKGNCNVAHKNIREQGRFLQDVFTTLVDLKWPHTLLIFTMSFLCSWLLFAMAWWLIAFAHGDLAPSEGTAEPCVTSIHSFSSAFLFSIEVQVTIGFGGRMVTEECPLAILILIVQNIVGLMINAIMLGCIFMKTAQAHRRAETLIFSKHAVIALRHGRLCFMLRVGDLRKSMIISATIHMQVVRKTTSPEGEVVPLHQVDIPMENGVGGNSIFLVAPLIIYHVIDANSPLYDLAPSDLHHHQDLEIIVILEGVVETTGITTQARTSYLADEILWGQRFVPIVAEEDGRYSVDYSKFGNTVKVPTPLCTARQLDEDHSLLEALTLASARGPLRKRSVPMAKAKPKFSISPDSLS
Experiment: Current response to 100 μM nucleotide relative to nucleotide-free solution, inside-out patches
Assay type: biochemical
Details: truncated SUR1-Y1353^stop
Procedure: Currents were recorded from inside-out membrane patches excised from transfected HEK-293T cells. Pipettes were pulled to a resistance of 1–5 MΩ and filled with an extracellular solution containing (in mM) 140 KCl, 1.2 MgCl2, 2.6 CaCl2, and 10 HEPES, pH 7.4 or 140 KCl, 1 EGTA, 10 HEPES, pH 7.3. The intracellular (bath) solutions contained either (in mM) 107 KCl, 2 MgCl2, 1 CaCl2, 10 EGTA, and 10 HEPES, pH 7.2 for experiments showing nucleotide-dependent activation or 140 KCl, 1 EDTA, 1 EGTA, 10 HEPES pH 7.3 for experiments showing nucleotide-dependent inhibition. Nucleotides were added as indicated. Patches were perfused with an 8-channel µFlow perfusion system. Data were acquired at a holding potential of −60 mV using an Axopatch 200B amplifier and Digidata 1322A digitizer with pClamp 9.0 software (Molecular Devices). Currents were digitized at 10 kHz and low-pass filtered at 1 kHz. KATP channels run down in excised patches (reviewed by Proks et al.) ([Proks et al., 2016]). For inhibitory concentration-response relationships, rundown was corrected by alternating test nucleotide solutions with nucleotide-free (control) solutions and expressing the test currents as a fraction of the average of the control currents before and after the test solution. […]

Nc1ncnc2c1ncn2[C@@H]1O[C@H](COP(=O)([O-])OP(=O)([O-])O)[C@@H](O)[C@H]1O.[Mg+2] [MgADP]
inhibition of current: 59%
